The values that follow come from patent US20180133331A1, “Site-Specific DNA-Doxorubicin Conjugates Display Enhanced Cytotoxicity to Breast Cancer Cells” (priority 2014, published 2018).

The subject of this data set is Salmon Sperm DNA. As to the kind of experiment: Dox transfer from DCH to salmon sperm DNA (fluorescence quenching, stability of Dox:hairpin conjugate). Type of data set: physicochemical. The conditions noted are these: 100-fold excess spDNA (w/w), 37° C. Here is the method:
Dox transfer from DCH: Samples of 2.5 μM (approximately 2 μg in 100 uL) DCH, doxorubicin, or hairpin+doxorubicin were prepared in DPBS with or without a 100-fold by weight (200 μg) excess of Salmon Sperm DNA and incubated at 37° C. Fluorescence intensity was determined by Typhoon-9210 variable mode imager with excitation set to 532 nm and the emission filter at 610 nm.
Stability of Dox:Hairpin Conjugate. It was hypothesized that covalent binding of Dox would allow for the Dox-conjugated hairpin to serve as a delivery vehicle with improved pharmacological properties and reduced systemic toxicities relative to conventional Dox. In order for the hairpin to act as an efficient delivery vehicle, Dox must remain stably bound under physiological conditions, but also undergo intracellular release and transfer to genomic DNA. […] Using the difference in fluorescence between hairpin-bound Dox and Dox intercalated into DNA, the half-life of the Dox-hairpin bond was measured. An assay was developed to quantify the transfer of Dox from the hairpin to genomic DNA under physiologic conditions. This assay is based on the difference in fluorescence of Dox in the context of the hairpin conjugate relative to genomic DNA. […] Reactions were incubated at 37° C. with fluorescence quenching measured over 48 h. […]

Turning to `COc1cccc2c1C(=O)c1c(O)c3c(c(O)c1C2=O)C[C@@](O)(C(=O)CO)C[C@@H]3O[C@H]1C[C@H](N)[C@H](O)[C@H](C)O1` [Dox, Doxorubicin], the “fluorescence quenching following addition of spDNA” value was “fully quenched within one hour”.
